The results in this text go back to PubChem BioAssay AID1648 (Sanford-Burnham Center for Chemical Genomics, 2009).

Calls of active or inactive are those of the source. No rule for the calls is given here. Where only a bound is given, the exact number is not on record here.

The assay concerns the target Serine/threonine-protein kinase mTOR (Homo sapiens) (UniProt P42345). Kind of assay: mTOR FRB domain ligand binding – biophysical, NMR (AID 1648). The conditions noted are these: NMR binding to FRB domain, chemical shift.

Serine/threonine-protein kinase mTOR (Homo sapiens), sequence (P42345 2015-2114): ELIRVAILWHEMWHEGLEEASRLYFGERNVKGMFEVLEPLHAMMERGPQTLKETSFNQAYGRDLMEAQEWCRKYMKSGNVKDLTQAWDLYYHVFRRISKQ

What is called Kd is the concentration at which binding is half-saturated. As for `OCc1ccccc1O[C@@H]1O[C@H](CO)[C@@H](O)[C@H](O)[C@H]1O`, the Kd is > 4 mM (inactive).

With `CC1(C)N([O-])c2cc([N+](=O)[O-])ccc2[N+]1=O`, the Kd is > 4 mM (inactive). To `CCn1c(-c2c[nH]c3ccccc23)n[nH]c1=S` belongs > 4 mM (inactive). With `CC1=CC(=O)C2C(C)(C)CCC[C@]2(C)[C@@]1(O)CCc1ccoc1` (some centres undefined), the Kd is > 4 mM (inactive). To `COc1ccc(O)c(-c2cn[nH]c2-c2cccs2)c1` belongs > 4 mM (inactive).

With `O=C1CCCCCN1CO`, the Kd is > 4 mM (inactive). As for `CC(CC(=O)NN)C1(O)CCCCC1` (centres undefined), the Kd is > 4 mM (inactive). To `OC12C=CC(CC1)CC2` belongs > 4 mM (inactive); to `Cc1ccc(C2NS(=O)(=O)N=C2N)cc1` (centres undefined), > 4 mM (inactive); to `O=C(c1ccccc1-c1ccccc1)N1CCOCC1`, > 4 mM (inactive).

For `NCc1cccc(-n2cccc2)c1`, the Kd was > 4 mM (inactive). The result for `C=C[C@H]1CN2CC[C@H]1C[C@@H]2[C@H](O)c1ccnc2ccccc12` reads > 4 mM (inactive). To `CC1=NN2C(=N)CC(=O)N=C2S1` belongs > 4 mM (inactive).

For `CC(=O)O[C@@H]1CC2C(C)(C)[C@H](O)C=C[C@]2(C)C2CC[C@@]3(C)[C@H](c4ccoc4)OC(=O)C4OC43[C@@]21C` (some centres undefined), the Kd was > 4 mM (inactive). To `CC(C)=CCc1c(O)cc2occ(-c3ccc4c(c3)OCO4)c(=O)c2c1O` belongs > 4 mM (inactive); to `Cc1ncc(C(=O)O)c(-c2ccccc2)n1`, > 4 mM (inactive). To `S=c1[nH]cnc2sccc12` belongs > 4 mM (inactive); to `COc1ccc(NC(=O)C(N)=O)cc1Cl`, > 4 mM (inactive). The result for `O=C(O)c1ccnn1-c1ccccc1` reads > 4 mM (inactive). Regarding `FC(F)(F)c1cc(-c2ccco2)nc(N2CCOCC2)n1`, the Kd is > 4 mM (inactive). For `NC1Cc2ccccc2C1`, the Kd was > 4 mM (inactive). To `Cc1n[nH]c(=S)n(/N=C/c2cccs2)c1=O` belongs > 4 mM (inactive). For the molecule `O=c1nc(C(F)(F)F)nc2ccccn12`, the Kd is > 4 mM (inactive). The result for `COc1cc(OC)cc(-c2nc(N)n[nH]2)c1` reads > 4 mM (inactive). Consider `COc1c2c(cc3c1OCO3)C13C=C[C@H](OC)CC1N(C2)CC3O` (some centres undefined), for which the Kd was > 4 mM (inactive). Regarding `S=c1[nH]nc(-c2cccnc2)n1C1CCCCC1`, the Kd was > 4 mM (inactive). To `O=C(NCc1cccs1)c1ccncc1` belongs > 4 mM (inactive); to `O=c1cc(-c2ccccc2)oc2c(O)c(O)ccc12`, > 4 mM (inactive); to `C=CCCCCCCCCCCCc1ccco1`, > 4 mM (inactive). The result for `CCC(=O)NC(=S)Nc1ccc(C(N)=O)cc1` reads > 4 mM (inactive); that for `Cc1ccc(-c2nnn(CC(=O)O)n2)cc1`, > 4 mM (inactive). The result for `CCOC(=O)c1ccc2c(c1)nnn2C` reads > 4 mM (inactive). Turning to `CC(=O)Nc1cccs1`, the Kd is > 4 mM (inactive). The result for `OCc1ccc2nsnc2c1` reads > 4 mM (inactive).

As to `Cc1ccc(-c2nc(-c3cccnc3)no2)c(C)c1`, the Kd was > 4 mM (inactive).

`Cc1cccc(CO)n1`: the Kd was > 4 mM (inactive).

As to `CN1CCC(NC(=S)NC2CC2)CC1`, the Kd was > 4 mM (inactive). To `NC(=O)c1ccsc1NC(=O)c1ccccc1[N+](=O)[O-]` belongs > 4 mM (inactive); to `CC(=O)O[C@@H]1CC2C(C)(C)[C@@H](O)CC[C@]2(C)C2CC[C@@]3(C)[C@H](c4ccoc4)OC(=O)[C@H]4O[C@]43[C@@]21C` (some centres undefined), > 4 mM (inactive). To `O=C(CC1SC(=O)NC1=O)Nc1nccs1` (centres undefined) belongs > 4 mM (inactive); to `COC(=O)Cc1csc(N)n1`, > 4 mM (inactive). To `O=c1c2ccccc2nc(-c2ccco2)n1-c1nccs1` belongs > 4 mM (inactive); to `O=C(Nc1ccon1)c1ccccc1Cl`, > 4 mM (inactive); to `ON=c1ccc2nc3ccccc3nc2cc1`, > 4 mM (inactive). As to `COc1cccc(Oc2ccc(N)cn2)c1`, the Kd is > 4 mM (inactive).

Consider `CN1CCN(CC(=O)N2CCc3ccccc32)CC1`, for which the Kd was > 4 mM (inactive). To `CCNC(CC(=O)Nc1ccc(O)cc1)C(=O)O` (centres undefined) belongs > 4 mM (inactive); to `Cc1ncc(C[n+]2csc3ccccc32)c(N)n1`, > 4 mM (inactive). To `CC(=O)c1cccc(NS(=O)(=O)N(C)C)c1` belongs > 4 mM (inactive); to `COC(=O)/C(=C1\OC(=O)C(c2ccccc2)C1=O)c1ccccc1` (centres undefined), > 4 mM (inactive); to `CC(=O)OCC(OC(C)=O)C(OC(C)=O)C(OC(C)=O)C(OC(C)=O)C(COC(C)=O)OC(C)=O` (centres undefined), > 4 mM (inactive).

`COc1c2ccoc2cc2oc(C)cc(=O)c12`: the Kd was > 4 mM (inactive).

On to `Cc1nnc(SCC(=O)NCc2ccccc2)[nH]c1=O`, for which the Kd was > 4 mM (inactive). To `C=C(C)C1CC=C(CO)CC1` (centres undefined) belongs > 4 mM (inactive). Consider `Cc1cc(C)cc(OC(=O)N2CCOCC2)c1`, for which the Kd is > 4 mM (inactive). To `CCc1cccc(C)c1NC(=O)c1cc(C)oc1C` belongs > 4 mM (inactive); to `NC12CC3CC(C1)CC(O)(C3)C2`, > 4 mM (inactive); to `OC1(c2ccc(Cl)cc2)CCNCC1`, > 4 mM (inactive). The result for `Cc1cc(C(=O)N2CCN(c3ccccn3)CC2)c(C)o1` reads > 4 mM (inactive); that for `COCC(=O)OCn1nnc2ccccc2c1=O`, > 4 mM (inactive); that for `COc1ccc(-c2coc3c(OC)c(OC)cc(OC)c3c2=O)cc1`, > 4 mM (inactive). The result for `O=C(CSc1ncn[nH]1)c1ccc2c(c1)OCO2` reads > 4 mM (inactive); that for `COc1ccc(-c2coc3c(O)c(OC)ccc3c2=O)cc1`, > 4 mM (inactive); that for `CC(=O)Nn1c(=O)[nH]c2ccccc2c1=O`, > 4 mM (inactive). On to `CC(C)c1ccc(NC(=O)C(N)=O)cc1`, for which the Kd was > 4 mM (inactive). The result for `CC1(C)C2CC[C@]3(C)C(C(=O)C=C4[C@@H]5C[C@@](C)(C(=O)O)CC[C@]5(C)CC[C@]43C)[C@@]2(C)CC[C@@H]1O` (some centres undefined) reads > 4 mM (inactive); that for `Cc1sc2nc(SCC(=O)N(C)C)[nH]c(=O)c2c1C`, > 4 mM (inactive); that for `CC1=C(C(N)=O)C(c2ccco2)C(C(N)=O)=C(C)N1`, > 4 mM (inactive).

`CC(=O)Nc1ccc(S(=O)(=O)N2CCN=C2C)cc1`: the Kd is > 4 mM (inactive).

Turning to `c1ccc(-c2nsc(N3CCCNCC3)n2)cc1`, the Kd is > 4 mM (inactive). To `NC(=O)CSc1ccc2nnc(-c3cccs3)n2n1` belongs > 4 mM (inactive); to `CSc1ccccc1NC(=O)c1c(C)noc1C`, > 4 mM (inactive). To `O=C(Oc1ccc2c(c1)CCC2)N1CCOCC1` belongs > 4 mM (inactive); to `Cc1ccn(S(=O)(=O)c2ccc(C(C)(C)C)cc2)n1`, > 4 mM (inactive).
